Results: patent publication US20040019018A1, “Rigid pyrrolidone modulators of pkc” (priority 2003, published 2004)

Columns and labels:
sAPP α = assay: Secreted APP from human fibroblasts, Western blot with 6E10 (Example 14); format: cell-based; conditions: human fibroblasts (AD patients)
Procedure: Human fibroblasts were grown to confluence as above for PKC translocation. On the day of the experiment, cells were rinsed twice with serum-free Dulbecco's modified Eagle's medium (DMEM) and incubated in the same medium for 2 hours. Cells were treated with the drugs above, or DMSO vehicle as a control, for 2 hours. The medium was collected and spun for 5 min in a clinical centrifuge to remove cell debris. Proteins in the cell medium were precipitated using 10% trichloroacetic acid (TCA). Precipitated proteins were dissolved in electrophoresis buffer, separated on 8% SDS-PAGE as described above. Secreted APP was detected by Western blotting using a specific monoclonal antibody, 6E10.

[1] = tested on: LNCaP prostate cancer cells; assay: Induction of apoptosis in LNCaP prostate cancer cells (DAPI staining); format: cell-based
Procedure: The capacity of inducing apoptosis by compound (1) was evaluated in a model of LNCaP prostate cancer cells. It is well established that in this model phorbol esters (e.g., PMA) activate PKC to induce apoptosis (reference 13). LNCaP cells were treated with compound (1) for 1 h, and apoptosis was assessed 24 h later.
Control cells or cells infected for 14 h with adenoviruses for LacZ, PKCα, or PKCδ (multiplicity of infection=10 pfu/cell) were treated with different concentrations of compound (1) or PMA for 1 h. Cells were collected 24 h later and stained with DAPI. The incidence of apoptosis in each preparation was analyzed by counting 500 cells and determining the percentage of apoptotic cells. Results are the mean±standard error of three independent experiments.
It is well established that PKCα and PKCδ are the isozymes that mediate phorbol ester-induced apoptosis in LNCaP cells (references 13c-e). A model that has been used to assess isozyme-specificity is the overexpression of specific PKCs by an adenoviral system. Infection of LNCaP cells with adenoviruses for PKCs leads to a high expression of the corresponding PKC isozyme, as determined by Western-blot analysis, kinase activity, or [^3H]PDBu binding (reference 13e).

## CCCCCCCCC#Cc1ccc2c(c1)C(C)(C(C)C)C1C(=O)NC(CO)C21 [Compound 1, (3S, 8R, 9S, 10S)-6-(dec-1′-ynyl)-3-hydroxymethyl-8-isopropyl-8-methyl-3,3a,8,8a-tetrahydro-2H-2-aza-cyclopenta[a]inden-1-one]
sAPP α
  secretion of sAPP: increased the secretion of sAPP
[1]; 1-30 μM, treated 1 h, apoptosis assessed 24 h later, FIG. 6A
  apoptotic effect in LNCaP cells: induces a dose-dependent apoptotic effect
[1]; LNCaP cells infected with LacZ adenovirus
  apoptotic effect with control adenovirus: did not affect the apoptotic effect
[1]; LNCaP cells infected with adenoviruses for PKCα or PKCδ
  apoptotic response with overexpression of PKC isozymes: markedly potentiates the apoptotic response
